Laboratory results published in article PMC7083880 (Nature Communications, 2020).
Several values for one entry are separate records, joined by “and”; a condition that tells them apart may be missing. Equal values may be shown once.

Assays:
[1] = test system: firefly luciferase (Fluc) gene with UAG nonsense codon at position 109 in HeLa cells; test: Firefly luciferase readthrough assay, UAG PTC construct; format: cell-based, human
[2] = target: T1, FTSJ1 (Homo sapiens, UniProt Q9UET6); test: UGA readthrough luciferase assay with FTSJ1 overexpression; format: cell-based
T1 construct: host or cells: HeLa
T1 sequence (Q9UET6 1-329): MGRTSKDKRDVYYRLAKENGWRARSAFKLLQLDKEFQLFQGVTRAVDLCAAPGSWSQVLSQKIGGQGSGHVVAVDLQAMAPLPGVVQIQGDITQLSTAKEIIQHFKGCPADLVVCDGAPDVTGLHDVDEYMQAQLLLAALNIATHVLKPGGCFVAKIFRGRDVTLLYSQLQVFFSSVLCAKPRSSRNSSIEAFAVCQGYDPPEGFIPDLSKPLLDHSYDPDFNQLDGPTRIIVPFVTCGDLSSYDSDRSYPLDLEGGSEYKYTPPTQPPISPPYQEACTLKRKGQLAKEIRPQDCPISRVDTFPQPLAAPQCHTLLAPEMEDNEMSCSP
From the text: Firefly luciferase from HEK293FT cells transfected with the Fluc-int-UGA construct was immunoprecipitated and digested with trypsin. The MS/MS spectrum of the peptide containing the PTC position and the sequence determination are shown. The upper red and blue sequences indicate the amino acids validated, respectively, by detection of Nter and Cter peptide fragments (b and y ion series). Peptide fragments y6 and y7 clearly identify tryptophan (W) at the PTC position. The black peaks correspond to non-attributed mass-to-charge ratio (m/z) values. […] Readthrough efficiency was determined by measuring luciferase activity in HeLa cells co-transfected with the firefly luciferase construct described in Fig. 1b and with increasing amounts of an expression vector for either FTSJ1 or CTU1 (0.5, 1, or 2 µg). The empty expression vector (E.v.) was used as control. […] The experiment was performed twice and the results of both experiments (Exp1 and Exp2) are shown. c Western blot analysis of FTSJ1 and CTU1. d 2′-O-methylation analysis of tRNA^Trp, tRNA^SER, and tRNA^GLN by RiboMethSeq. […] A molecular weight marker is indicated to the left of each gel. p-values (p) were calculated using Student’s t-test. Source data are provided as a Source Data file.
Among the enzymes modifying tRNAs liable to recognize a stop codon by extended wobbling, human FTSJ1 (TRM7 in yeast) exclusively modifies tRNAs involved in UGA readthrough. In addition to other tRNA targets, FTSJ1 methylates the cytosine at position 34 of tRNA^Trp. Inhibition of this modification could increase the capacity of tRNA^Trp to misdecode and recognize the UGA stop codon. […] FTSJ1 and CTU1 overexpression were assessed by western-blot analysis (Fig. 5c).

[3] = test system: firefly luciferase (Fluc) gene with UAA nonsense codon at position 109 in HeLa cells; test: Firefly luciferase readthrough assay, UAA PTC construct; format: cell-based, human
[4] = DAP 3.75µM, average of 2 experiments
[5] = DAP 37.5µM, average of 2 experiments

## Nc1nc(N)c2[nH]cnc2n1 [DAP, 2,6-diaminopurine]
[1]; [4]
  Luciferase activity, UAG PTC: 366.5±43 and 366.5
[1]; DAP 3.75µM, experiment 1
  Luciferase activity, UAG PTC: 336
[1]; DAP 3.75µM, experiment 2
  Luciferase activity, UAG PTC: 397
[1]; [5]
  Luciferase activity, UAG PTC: 451.5±145 and 451.5
[1]; DAP 37.5µM, experiment 1
  Luciferase activity, UAG PTC: 349
[1]; DAP 37.5µM, experiment 2
  Luciferase activity, UAG PTC: 554
[2]; 0.5µg FTSJ1, 0.39µM
  luciferase activity, average: 904.125
  luciferase activity, exp1: 632.5
  luciferase activity, exp1*1,5: 948.75
  luciferase activity, exp2: 859.5
[2]; 0.5µg FTSJ1, 0.78µM
  luciferase activity, average: 1247.62
  luciferase activity, exp1: 776.5
  luciferase activity, exp1*1,5: 1164.75
  luciferase activity, exp2: 1330.5
[2]; 0.5µg FTSJ1, 1.56µM
  luciferase activity, average: 1901
  luciferase activity, exp1: 1287
  luciferase activity, exp1*1,5: 1930.5
  luciferase activity, exp2: 1871.5
[2]; 0.5µg FTSJ1, 6.25µM
  luciferase activity, average: 9598.75
  luciferase activity, exp1: 3517
  luciferase activity, exp1*1,5: 5275.5
  luciferase activity, exp2: 13922
[2]; 0.5µg FTSJ1, 25µM
  luciferase activity, average: 34831.4
  luciferase activity, exp1: 13760.5
  luciferase activity, exp1*1,5: 20640.8
  luciferase activity, exp2: 49022
[2]; 0.5µg FTSJ1, 100µM
  luciferase activity, average: 81250
  luciferase activity, exp1: 48276
  luciferase activity, exp1*1,5: 72414
  luciferase activity, exp2: 90086
[2]; 0.5µg FTSJ1, 300µM
  luciferase activity, average: 102352
  luciferase activity, exp1: 48428.5
  luciferase activity, exp1*1,5: 72642.8
  luciferase activity, exp2: 132062
[2]; 0.5µg FTSJ1, 600µM
  luciferase activity, average: 91333.2
  luciferase activity, exp1: 34760
  luciferase activity, exp1*1,5: 52140
  luciferase activity, exp2: 130526
[2]; 1µg FTSJ1, 0.39µM
  luciferase activity, average: 825.625
  luciferase activity, exp1: 545.5
  luciferase activity, exp1*1,5: 818.25
  luciferase activity, exp2: 833
[2]; 1µg FTSJ1, 0.78µM
  luciferase activity, average: 1113.62
  luciferase activity, exp1: 667.5
  luciferase activity, exp1*1,5: 1001.25
  luciferase activity, exp2: 1226
[2]; 1µg FTSJ1, 1.56µM
  luciferase activity, average: 1547.75
  luciferase activity, exp1: 877
  luciferase activity, exp1*1,5: 1315.5
  luciferase activity, exp2: 1780
[2]; 1µg FTSJ1, 6.25µM
  luciferase activity, average: 5589
  luciferase activity, exp1: 2330
  luciferase activity, exp1*1,5: 3495
  luciferase activity, exp2: 7683
[2]; 1µg FTSJ1, 25µM
  luciferase activity, average: 18207.6
  luciferase activity, exp1: 6784.5
  luciferase activity, exp1*1,5: 10176.8
  luciferase activity, exp2: 26238.5
[2]; 1µg FTSJ1, 100µM
  luciferase activity, average: 59739.5
  luciferase activity, exp1: 25052
  luciferase activity, exp1*1,5: 37578
  luciferase activity, exp2: 81901
[2]; 1µg FTSJ1, 300µM
  luciferase activity, average: 78923.5
  luciferase activity, exp1: 30654
  luciferase activity, exp1*1,5: 45981
  luciferase activity, exp2: 111866
[2]; 1µg FTSJ1, 600µM
  luciferase activity, average: 72130.6
  luciferase activity, exp1: 22687.5
  luciferase activity, exp1*1,5: 34031.2
  luciferase activity, exp2: 110230
[2]; 2µg FTSJ1, 0.39µM
  luciferase activity, average: 748.25
  luciferase activity, exp1: 541
  luciferase activity, exp1*1,5: 811.5
  luciferase activity, exp2: 685
[2]; 2µg FTSJ1, 0.78µM
  luciferase activity, average: 885.625
  luciferase activity, exp1: 619.5
  luciferase activity, exp1*1,5: 929.25
  luciferase activity, exp2: 842
[2]; 2µg FTSJ1, 1.56µM
  luciferase activity, average: 1120.12
  luciferase activity, exp1: 798.5
  luciferase activity, exp1*1,5: 1197.75
  luciferase activity, exp2: 1042.5
[2]; 2µg FTSJ1, 6.25µM
  luciferase activity, average: 2590.25
  luciferase activity, exp1: 1505
  luciferase activity, exp1*1,5: 2257.5
  luciferase activity, exp2: 2923
[2]; 2µg FTSJ1, 25µM
  luciferase activity, average: 6098.62
  luciferase activity, exp1: 3067.5
  luciferase activity, exp1*1,5: 4601.25
  luciferase activity, exp2: 7596
[2]; 2µg FTSJ1, 100µM
  luciferase activity, average: 13866.6
  luciferase activity, exp1: 8407.5
  luciferase activity, exp1*1,5: 12611.2
  luciferase activity, exp2: 15122
[2]; 2µg FTSJ1, 300µM
  luciferase activity, average: 32953.2
  luciferase activity, exp1: 15279
  luciferase activity, exp1*1,5: 22918.5
  luciferase activity, exp2: 42988
[2]; 2µg FTSJ1, 600µM
  luciferase activity, average: 35768.5
  luciferase activity, exp1: 13538
  luciferase activity, exp1*1,5: 20307
  luciferase activity, exp2: 51230
[2]; HeLa, pFluc-int-UGA
  Effect of FTSJ1 overexpression on DAP-promoted readthrough: strongly reduce DAP-promoted readthrough
[3]; [4]
  Luciferase activity, UAA PTC: 370.75±86 and 370.75
[3]; DAP 3.75µM, experiment 1
  Luciferase activity, UAA PTC: 310
[3]; DAP 3.75µM, experiment 2
  Luciferase activity, UAA PTC: 431.5
[3]; [5]
  Luciferase activity, UAA PTC: 610.75±408 and 610.75
[3]; DAP 37.5µM, experiment 1
  Luciferase activity, UAA PTC: 322.5
[3]; DAP 37.5µM, experiment 2
  Luciferase activity, UAA PTC: 899
